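Interpolation was linear, between the two tested concentrations surrounding the appropriate level; five concentrations were tested over 48 hours in 96-well plates. TGI: concentration producing complete growth inhibition.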
Tests used:
Assay in all cases: NCI anticancer screen, dose series, 48 h
TK-10 renal = test system: TK-10 renal
HOP-62 NSCLC = test system: HOP-62 NSCLC
NCI-H522 lung = test system: NCI-H522 lung
A549 NSCLC = test system: A549 NSCLC
RXF 393 renal = test system: RXF 393 renal
MALME-3M melanoma = test system: MALME-3M melanoma
OVCAR-8 ovarian = test system: OVCAR-8 ovarian
DMS 273 small cell lung = test system: DMS 273 small cell lung
NCI-H226 lung = test system: NCI-H226 lung
KM12 colon = test system: KM12 colon
HL-60(TB) leukemia = test system: HL-60(TB) leukemia
LOX IMVI melanoma = test system: LOX IMVI melanoma
CAKI-1 renal = test system: CAKI-1 renal
XF 498 CNS = test system: XF 498 CNS
M14 melanoma = test system: M14 melanoma
UO-31 renal = test system: UO-31 renal
SNB-75 CNS = test system: SNB-75 CNS
DMS 114 small cell lung = test system: DMS 114 small cell lung
EKVX NSCLC = test system: EKVX NSCLC
786-0 renal = test system: 786-0 renal
SF-295 CNS = test system: SF-295 CNS
SF-268 CNS = test system: SF-268 CNS
UACC-257 melanoma = test system: UACC-257 melanoma
DLD-1 colon = test system: DLD-1 colon
COLO 205 colon = test system: COLO 205 colon
HCC-2998 colon = test system: HCC-2998 colon
SK-MEL-2 melanoma = test system: SK-MEL-2 melanoma
LXFL 529 NSCLC = test system: LXFL 529 NSCLC
KM20L2 colon = test system: KM20L2 colon
ACHN renal = test system: ACHN renal
HT29 colon = test system: HT29 colon
OVCAR-4 ovarian = test system: OVCAR-4 ovarian
OVCAR-5 ovarian = test system: OVCAR-5 ovarian
NCI-H23 lung = test system: NCI-H23 lung
M19-MEL melanoma = test system: M19-MEL melanoma
NCI-H460 lung = test system: NCI-H460 lung
SN12C renal = test system: SN12C renal
SK-MEL-28 melanoma = test system: SK-MEL-28 melanoma
SW-620 colon = test system: SW-620 colon
SF-539 CNS = test system: SF-539 CNS
U251 CNS = test system: U251 CNS
SNB-78 CNS = test system: SNB-78 CNS
SK-OV-3 ovarian = test system: SK-OV-3 ovarian
SK-MEL-5 melanoma = test system: SK-MEL-5 melanoma
A498 renal = test system: A498 renal
OVCAR-3 ovarian = test system: OVCAR-3 ovarian
HCT-15 colon = test system: HCT-15 colon
SR leukemia = test system: SR leukemia
CCRF-CEM leukemia = test system: CCRF-CEM leukemia
IGROV1 ovarian = test system: IGROV1 ovarian
RPMI-8226 leukemia = test system: RPMI-8226 leukemia
K-562 leukemia = test system: K-562 leukemia
MOLT-4 leukemia = test system: MOLT-4 leukemia
HOP-18 NSCLC = test system: HOP-18 NSCLC
SNB-19 CNS = test system: SNB-19 CNS
UACC-62 melanoma = test system: UACC-62 melanoma
HCT-116 colon = test system: HCT-116 colon
HOP-92 NSCLC = test system: HOP-92 NSCLC

Which TGI (TK-10 renal) does the source give for `CC1=C(O)/C(=C/C(C)CCC/C(C)=C/C=C/C(C)CCCc2ccoc2)OC1=O` (configuration not stated) here?
Its TGI is 78.6 µM.

What about the TGI (HOP-62 NSCLC) of the same compound?
The TGI was 59.6 µM.

What about the TGI (NCI-H522 lung) of the same compound?
The TGI was greater than 100 µM.

What about the TGI (A549 NSCLC) of the same compound?
Its TGI is 73.6 µM.

What about the TGI (RXF 393 renal) of the same compound?
Its TGI is greater than 100 µM.

And the TGI (MALME-3M melanoma)?
Its TGI is 49.4 µM.

What about the TGI (OVCAR-8 ovarian) of the same compound?
The TGI was greater than 100 µM.

And the TGI (DMS 273 small cell lung)?
Its TGI is greater than 100 µM.

What about the TGI (NCI-H226 lung) of the same compound?
The TGI was 68.8 µM.

And the TGI (KM12 colon)?
Its TGI is greater than 100 µM.

What about the TGI (HL-60(TB) leukemia) of the same compound?
Its TGI is 63.8 µM.

What about the TGI (LOX IMVI melanoma) of the same compound?
Its TGI is greater than 100 µM.

And the TGI (CAKI-1 renal)?
Its TGI is greater than 100 µM.

And the TGI (XF 498 CNS)?
Its TGI is 34.6 µM.

What about the TGI (M14 melanoma) of the same compound?
Its TGI is greater than 100 µM.

And the TGI (UO-31 renal)?
Its TGI is greater than 100 µM.

What about the TGI (SNB-75 CNS) of the same compound?
Its TGI is greater than 100 µM.

What about the TGI (DMS 114 small cell lung) of the same compound?
Its TGI is greater than 100 µM.

What about the TGI (EKVX NSCLC) of the same compound?
Its TGI is 67.1 µM.

What about the TGI (786-0 renal) of the same compound?
The TGI was 84.9 µM.

And the TGI (SF-295 CNS)?
The TGI was 81 µM.

And the TGI (SF-268 CNS)?
Its TGI is 97.9 µM.

And the TGI (UACC-257 melanoma)?
The TGI was 66.3 µM.

And the TGI (DLD-1 colon)?
The TGI was greater than 100 µM.

What about the TGI (COLO 205 colon) of the same compound?
The TGI was greater than 100 µM.

And the TGI (HCC-2998 colon)?
Its TGI is 63 µM.

What about the TGI (SK-MEL-2 melanoma) of the same compound?
The TGI was 57.9 µM.

What about the TGI (LXFL 529 NSCLC) of the same compound?
The TGI was greater than 100 µM.

What about the TGI (KM20L2 colon) of the same compound?
Its TGI is greater than 100 µM.

And the TGI (ACHN renal)?
The TGI was 50.9 µM.

And the TGI (HT29 colon)?
Its TGI is greater than 100 µM.

What about the TGI (OVCAR-4 ovarian) of the same compound?
Its TGI is 85.3 µM.

And the TGI (OVCAR-5 ovarian)?
Its TGI is 69.3 µM.

What about the TGI (NCI-H23 lung) of the same compound?
The TGI was 59.3 µM.

And the TGI (M19-MEL melanoma)?
Its TGI is greater than 100 µM.

What about the TGI (NCI-H460 lung) of the same compound?
Its TGI is greater than 100 µM.

What about the TGI (SN12C renal) of the same compound?
Its TGI is greater than 100 µM.

What about the TGI (SK-MEL-28 melanoma) of the same compound?
Its TGI is greater than 100 µM.

What about the TGI (SW-620 colon) of the same compound?
Its TGI is greater than 100 µM.

What about the TGI (SF-539 CNS) of the same compound?
Its TGI is greater than 100 µM.

What about the TGI (U251 CNS) of the same compound?
Its TGI is greater than 100 µM.

And the TGI (SNB-78 CNS)?
The TGI was greater than 100 µM.

What does the source list for `C#CCN(N=O)C(=O)NCCCCC(NC(C)=O)C(=O)NCc1ccccc1` (configuration not stated)?
TGI (TK-10 renal): > 100 µM; TGI (HOP-62 NSCLC): > 100 µM; TGI (NCI-H522 lung): > 100 µM; TGI (A549 NSCLC): > 100 µM; TGI (RXF 393 renal): > 100 µM; TGI (MALME-3M melanoma): > 100 µM; TGI (OVCAR-8 ovarian): > 100 µM; TGI (SK-OV-3 ovarian): > 100 µM; TGI (NCI-H226 lung): > 100 µM; TGI (KM12 colon): > 100 µM; TGI (SK-MEL-5 melanoma): > 100 µM; TGI (LOX IMVI melanoma): > 100 µM; TGI (A498 renal): > 100 µM; TGI (CAKI-1 renal): > 100 µM; TGI (XF 498 CNS): > 100 µM; TGI (M14 melanoma): > 100 µM; TGI (UO-31 renal): > 100 µM; TGI (SNB-75 CNS): > 100 µM; TGI (DMS 114 small cell lung): > 100 µM; TGI (EKVX NSCLC): > 100 µM; TGI (OVCAR-3 ovarian): > 100 µM; TGI (HCT-15 colon): > 100 µM; TGI (786-0 renal): > 100 µM; TGI (SF-295 CNS): > 100 µM; TGI (SF-268 CNS): > 100 µM; TGI (UACC-257 melanoma): > 100 µM; TGI (SR leukemia): > 100 µM; TGI (DLD-1 colon): > 100 µM; TGI (COLO 205 colon): > 100 µM; TGI (HCC-2998 colon): > 100 µM; TGI (CCRF-CEM leukemia): > 100 µM; TGI (IGROV1 ovarian): > 100 µM; TGI (LXFL 529 NSCLC): > 100 µM; TGI (KM20L2 colon): > 100 µM; TGI (RPMI-8226 leukemia): > 100 µM; TGI (ACHN renal): > 100 µM; TGI (K-562 leukemia): > 100 µM; TGI (HT29 colon): > 100 µM; TGI (OVCAR-4 ovarian): > 100 µM; TGI (OVCAR-5 ovarian): > 100 µM; TGI (MOLT-4 leukemia): > 100 µM; TGI (NCI-H23 lung): > 100 µM; TGI (HOP-18 NSCLC): > 100 µM; TGI (M19-MEL melanoma): > 100 µM; TGI (NCI-H460 lung): > 100 µM; TGI (SN12C renal): > 100 µM; TGI (SK-MEL-28 melanoma): > 100 µM; TGI (SNB-19 CNS): > 100 µM; TGI (SW-620 colon): > 100 µM; TGI (UACC-62 melanoma): > 100 µM; TGI (HCT-116 colon): > 100 µM; TGI (SF-539 CNS): > 100 µM; TGI (U251 CNS): > 100 µM; TGI (HOP-92 NSCLC): > 100 µM; TGI (SNB-78 CNS): > 100 µM

From PubChem BioAssay (NCI)
